SMILES	logP
C/C=C(/C)C(=O)O[C@@H]1[C@H](OC(C)=O)c2c(ccc3ccc(=O)oc23)OC1(C)C	3.75
CC(C)=CCOc1ccc2ccc(=O)oc2c1	3.91
O=c1cc(O)c2ccccc2o1	1.42
COc1cc2ccc(=O)oc2cc1OC	2.45
C/C=C(/C)C(=O)O[C@H]1C[C@@](C)(O)C(=O)[C@@H](OC(=O)/C(C)=C\C)[C@@]2(C)CC[C@@](O)(C(C)C)[C@@H]12	3.29
C/C=C(\C)C(=O)OC1c2c(ccc3ccc(=O)oc23)OC(C)(C)[C@@H]1OC(=O)/C(C)=C/C (stereo not given in full)	4.41
COc1c2ccoc2c(OCC=C(C)C)c2oc(=O)ccc12	3.86
C/C=C(/C)C(=O)O[C@H]1[C@@H](O)c2c(ccc3ccc(=O)oc23)OC1(C)C	3.56
COc1ccc2c(C)cc(=O)oc2c1	3.16
COc1ccc2ccc(=O)oc2c1CC1OC1(C)C (stereo not given)	3.03
